Source: patent US9993001B2, “Herbicidal composition” (ISHIHARA SANGYO KAISHA, LTD., priority 2014, dated 2018)

Columns and labels:
Format in all cases: in vivo
[1] = test system: large crabgrass (Digitaria sanquinalis L.); test: Test Example 29: pot, soil treatment, metobromuron + indanofan; conditions: soil treatment, pot, 20th day after treatment, read-out: Growth inhibition rate of large crabgrass (%) Measured value
Excerpt: (§1) When the herbicidal activity in a case where two active ingredients are combined, is larger than the simple sum of the respective herbicidal activities of the two active ingredients (the expected activity), it is called a synergistic effect. The activity expected by the combination of two active ingredients can be calculated as follows (Colby S. R., “Weed”, vol. 15, p. 20-22, 1967). E=α+β−(α×β[…]) where α: growth inhibition rate when treated with x (g/ha) of herbicide X, • β: growth inhibition rate when treated with y (g/ha) of herbicide Y, • E: growth inhibition rate expected when treated with x (g/ha) of herbicide X and y (g/ha) of herbicide Y.
(§2) On the 19th day after treatment, the state of growth of barnyardgrass was visually observed and evaluated in accordance with the following standards. The growth inhibition rate (%) [measured value] and the growth inhibition rate (%) [calculated value] calculated by the Colby's method, are shown in Table 2.
(§3) Growth inhibition rate (%)=inhibition rate) (%) of 0 (equivalent to the non-treated area) to 100 (complete kill)
Soil was put into a 1/300,000 ha pot, and seeds of large crabgrass (Digitaria sanquinalis L.) were sown. On the day after seeding, predetermined amounts of SC containing metobromuron as active ingredient (same as in Test Example 1) and WP containing indanofan as active ingredient were diluted with water corresponding to 1,000 L per hectare and applied for soil treatment.
On the 20th day after treatment, the state of growth of large crabgrass was visually observed and evaluated in the same manner as in Test Example 1.

[2] = test system: black nightshade (Solanum nigrum L.); test: Test Example 27: pot, soil treatment, metobromuron + flufenacet; conditions: soil treatment, pot, 21st day after treatment, read-out: Growth inhibition rate of black nightshade (%) Measured value
Excerpt: as §1, §2, §3
(§4) Soil was put into a 1/300,000 ha pot, and seeds of black nightshade (Solanum nigrum L.) were sown. On the day after seeding, predetermined amounts of SC containing metobromuron as active ingredient (same as in Test Example 1) and EC containing prosulfocarb as active ingredient (trade name: BOXER NYUZAI, manufactured by Syngenta) were diluted with water corresponding to 1,000 L per hectare and applied for soil treatment.
(§5) On the 21st day after treatment, the state of growth of black nightshade was visually observed and evaluated in the same manner as in Test Example 1.
The test was carried out in the same manner as in Test Example 26 except that EC containing prosulfocarb as active ingredient was changed to SC containing flufenacet as active ingredient (trade name: Cadou, manufactured by Bayer CropScience), to obtain the results as shown in Table 28.

[3] = test system: barnyardgrass (Echinochloa crus-qalli L.); test: Test Example 21: pot, soil treatment, metobromuron + prometryn; conditions: soil treatment, pot, 21st day after treatment, read-out: Growth inhibition rate of barnyardgrass (%) Measured value
Excerpt: as §1, §2, §3
as §4, with “barnyardgrass (Echinochloa crus-qalli” for “black nightshade (Solanum nigrum”, “WP” for “EC”, “prometryn” for “prosulfocarb”, “Gesagard 50,” for “BOXER NYUZAI,”, “Nippon Kayaku Co., Ltd.)” for “Syngenta)”
(§6) On the 21st day after treatment, the state of growth of barnyardgrass was visually observed and evaluated in the same manner as in Test Example 1.

[4] = test system: large crabgrass (Diqitaria sanquinalis L.); test: Test Example 22: pot, soil treatment, metobromuron + prometryn; conditions: Digitaria sanguinalis, soil treatment, pot, 21st day after treatment, read-out: Growth inhibition rate of large crabgrass (%) Measured value
Excerpt: as §1, §2, §3
as §4, with “barnyardgrass (Echinochloa crus-qalli” for “black nightshade (Solanum nigrum”, “WP” for “EC”, “prometryn” for “prosulfocarb”, “Gesagard 50,” for “BOXER NYUZAI,”, “Nippon Kayaku Co., Ltd.)” for “Syngenta)”
as §6
The test was carried out in the same manner as in Test Example 21 except that barnyardgrass (Echinochloa crus-qalli L.) was changed to large crabgrass (Diqitaria sanquinalis L.), to obtain the results as shown in Table 23.

[5] = test system: black nightshade (Solanum nigrum L.); test: Test Example 26: pot, soil treatment, metobromuron + prosulfocarb; conditions: soil treatment, pot, 21st day after treatment, read-out: Growth inhibition rate of black nightshade (%) Measured value
Excerpt: as §1, §2, §3, §4, §5

[6] = test system: velvetleaf (Abutilon theophrasti MEDIC.); test: Test Example 13: pot, soil treatment, metobromuron + pyroxasulfone; conditions: soil treatment, pot, 12th day after treatment, read-out: Growth inhibition rate of velvetleaf (%) Measured value
Excerpt: as §1, §2, §3
Soil was put into a 1/300,000 ha pot, and seeds of velvetleaf (Abutilon theophrasti MEDIC.) were sown. Prior to germination of velvetleaf, predetermined amounts of SC containing metobromuron as active ingredient (same as in Test Example 1) and WG containing pyroxasulfone as active ingredient (trade name: Sakura 850 WG, manufactured by Bayer CropScience) were diluted with water corresponding to 1,000 L per hectare and applied for soil treatment.
On the 12th day after treatment, the state of growth of velvetleaf was visually observed and evaluated in the same manner as in Test Example 1.

[7] = test system: black nightshade (Solanum nigrum L.); test: Test Example 14: pot, soil treatment, metobromuron + pyroxasulfone; conditions: soil treatment, pot, 12th day after treatment, read-out: Growth inhibition rate of black nightshade (%) Measured value
Excerpt: as §1, §2, §3
as §4, with “Prior to germination of black nightshade,” for “On the day after seeding,”, “WG” for “EC”, “pyroxasulfone” for “prosulfocarb”, “(same as in Test Example 13)” for “(trade name: BOXER NYUZAI, manufactured by Syngenta)”
On the 12th day after treatment, the state of growth of black nightshade was visually observed and evaluated in the same manner as in Test Example 1.

[8] = test system: common lambsquarters (Chenopodium album L.); test: Test Example 30: pot, soil treatment, metobromuron + thiobencarb; conditions: soil treatment, pot, 20th day after treatment, read-out: Growth inhibition rate of common lambsquarters (%) Measured value
Excerpt: as §1, §2, §3
as §4, with “common lambsquarters (Chenopodium album” for “black nightshade (Solanum nigrum”, “thiobencarb” for “prosulfocarb”, “Saturn” for “BOXER”, “KUMIAI CHEMICAL INDUSTRY Co., Ltd.)” for “Syngenta)”
(§7) On the 20th day after treatment, the state of growth of common lambsquarters was visually observed and evaluated in the same manner as in Test Example 1.

[9] = test system: black nightshade (Solanum nigrum L.); test: Test Example 31: pot, soil treatment, metobromuron + thiobencarb; conditions: soil treatment, pot, 20th day after treatment, read-out: Growth inhibition rate of black nightshade (%) Measured value
Excerpt: as §1, §2, §3
as §4, with “common lambsquarters (Chenopodium album” for “black nightshade (Solanum nigrum”, “thiobencarb” for “prosulfocarb”, “Saturn” for “BOXER”, “KUMIAI CHEMICAL INDUSTRY Co., Ltd.)” for “Syngenta)”
as §7
The test was carried out in the same manner as in Test Example 30 except that common lambsquarters (Chenopodium album L.) was changed to black nightshade (Solanum nigrum L.), to obtain the results as shown in Table 32.

CCC1(CC2(c3cccc(Cl)c3)CO2)C(=O)c2ccccc2C1=O (racemic) [Indanofan, (RS)-2-[2-(3-chlorophenyl)-2,3-epoxypropyl]-2-ethyl indane-1,3-dione]
inhibition at 25 g/ha ([1]; 25 g/ha): 25%
inhibition at 37.5 g/ha ([1]; 37.5 g/ha): 25%
inhibition at 56.3 g/ha ([1]; 56.3 g/ha): 28%

CC(C)N(C(=O)COc1nnc(C(F)(F)F)s1)c1ccc(F)cc1 [Flufenacet, 4′-fluoro-N-isopropyl-2-[5-(trifluoromethyl)-1,3,4-thiadiazol-2-yloxy] acetanilide]
inhibition at 83.35 g/ha ([2]; 83.35 g/ha): 30%
inhibition at 125 g/ha ([2]; 125 g/ha): 25%
inhibition at 187.5 g/ha ([2]; 187.5 g/ha): 40%

CSc1nc(NC(C)C)nc(NC(C)C)n1 [Prometryn, N^2,N^4-diisopropyl-6-methylthio-1,3,5-triazine-2,4-diamine]
inhibition at 300 g/ha ([3]; 300 g/ha): 15%
inhibition at 400 g/ha ([3]; 400 g/ha): 38%
inhibition at 300 g/ha ([4]; 300 g/ha): 62%
inhibition at 400 g/ha ([4]; 400 g/ha): 76%

CCCN(CCC)C(=O)SCc1ccccc1 [Prosulfocarb, S-benzyl dipropyl(thiocarbamate)]
inhibition at 653.4 g/ha ([5]; 653.4 g/ha): 50%
inhibition at 980 g/ha ([5]; 980 g/ha): 50%
inhibition at 1470 g/ha ([5]; 1470 g/ha): 50%

Cn1nc(C(F)(F)F)c(CS(=O)(=O)C2=NOC(C)(C)C2)c1OC(F)F [Pyroxasulfone, 3-[5-(difluoromethoxy)-1-methyl-3-(trifluoromethyl)pyrazol-4-ylmethylsulfonyl]-4,5-dihydro-5,5-dimethyl-1,2-oxazole]
inhibition at 25 g/ha ([6]; 25 g/ha): 25%
inhibition at 33 g/ha ([6]; 33 g/ha): 28%
inhibition at 50 g/ha ([6]; 50 g/ha): 38%
inhibition at 25 g/ha ([7]; 25 g/ha): 50%
inhibition at 33 g/ha ([7]; 33 g/ha): 64%
inhibition at 50 g/ha ([7]; 50 g/ha): 73%

CCN(CC)C(=O)SCc1ccc(Cl)cc1 [Thiobencarb, S-4-chlorobenzyl diethyl(thiocarbamate)]
inhibition at 296.3 g/ha ([8]; 296.3 g/ha): 0%
inhibition at 444.4 g/ha ([8]; 444.4 g/ha): 0%
inhibition at 666.7 g/ha ([8]; 666.7 g/ha): 0%
inhibition at 296.3 g/ha ([9]; 296.3 g/ha): 25%
inhibition at 444.4 g/ha ([9]; 444.4 g/ha): 23%
inhibition at 666.7 g/ha ([9]; 666.7 g/ha): 20%
